Measurements taken from US11926623B2, “Heterocycle derivatives as pesticides” (Bayer Aktiengesellschaft, priority 2018, dated 2024).
Where two headings read alike, the source gives them in different places.

Legend:
Myzus persicae [1] = test: Myzus persicae oral test; format: in vivo; details: 120 h, mixed population of green peach aphids, after 5 days, read-out: efficacy
Description: Myzus persicae—Oral Test [table] To produce a suitable preparation of active compound, 1 part by weight of active compound is dissolved using the specified parts by weight of solvent and made up with water until the desired concentration is attained. 50 μl of the active ingredient formulation are transferred into microtitre plates and made up to a final volume of 200 μl with 150 μl of IPL41 insect medium (33%+15% sugar). Subsequently, the plates are sealed with parafilm, which a mixed population of green peach aphids (Myzus persicae) within a second microtitre plate is able to puncture and imbibe the solution through. After 5 days, the efficacy in % is determined. 100% means that all the aphids have been killed; 0% means that no aphids have been killed.

Myzus persicae [2] = test: Myzus persicae spray test; format: in vivo; details: foliar, 120 h, sprayed Chinese cabbage leaf discs, all stages of the green peach aphid, after 5 days, read-out: efficacy
Description: Myzus persicae—Spray Test [table] To produce a suitable active compound preparation, 1 part by weight of active compound is dissolved using the stated parts by weight of solvent and made up with water containing an emulsifier concentration of 1000 ppm until the desired concentration is attained. To produce further test concentrations, the formulation is diluted with emulsifier-containing water. Discs of Chinese cabbage leaves (Brassica pekinensis) infested by all stages of the green peach aphid (Myzus persicae) are sprayed with an active compound formulation of the desired concentration. After 5 days, the efficacy in % is determined. 100% means that all the aphids have been killed; 0% means that no aphids have been killed.

Phaedon cochleariae = Phaedon cochleariae spray test; format: in vivo; details: 100 g/ha, sprayed Chinese cabbage leaf discs, mustard beetle larvae, after 7 days
Description: Phaedon cochleariae—Spray Test
To produce a suitable active compound preparation, 1 part by weight of active compound is dissolved using the stated parts by weight of solvent and made up with water containing an emulsifier concentration of 1000 ppm until the desired concentration is attained. To produce further test concentrations, the formulation is diluted with emulsifier-containing water.
Discs of Chinese cabbage leaves (Brassica pekinensis) are sprayed with an active compound formulation of the desired concentration and, after drying, populated with larvae of the mustard beetle (Phaedon cochleariae).
After 7 days, the efficacy in % is determined. 100% means that all the beetle larvae have been killed; 0% means that no beetle larvae have been killed.

Spodoptera frugiperda = Spodoptera frugiperda spray test; format: in vivo; details: foliar, 168 h, sprayed maize leaf discs, fall armyworm caterpillars, after 7 days, read-out: efficacy
Description: Spodoptera frugiperda—Spray Test [table] To produce a suitable active compound preparation, 1 part by weight of active compound is dissolved using the stated parts by weight of solvent and made up with water containing an emulsifier concentration of 1000 ppm until the desired concentration is attained. To produce further test concentrations, the formulation is diluted with emulsifier-containing water. Leaf discs of maize (Zea mays) are sprayed with an active compound formulation of the desired concentration and, after drying, populated with caterpillars of the fall armyworm (Spodoptera frugiperda). After 7 days, the efficacy in % is determined. 100% means that all the caterpillars have been killed; 0% means that no caterpillar has been killed.

Diabrotica balteata = Diabrotica balteata spray test; format: in vivo; details: 168 h, 160 μg/well, sprayed germinated wheat grains, beetle larvae, after 7 days, read-out: efficacy
Description: Diabrotica balteata—Spray Test [table] To produce a suitable active compound preparation, 1 part by weight of active compound is dissolved using the stated parts by weight of solvent and made up with water containing an emulsifier concentration of 1000 ppm until the desired concentration is attained. To produce further test concentrations, the formulation is diluted with emulsifier-containing water. Pre-swollen wheat grains (Triticum aestivum) are incubated in a multiwell plate filled with agar and a little water for one day (5 seed grains per well). The germinated wheat grains are sprayed with an active compound preparation of the desired concentration. Subsequently, each cavity is infected with 10-20 beetle larvae of Diabrotica balteata. After 7 days, the efficacy in % is determined. 100% means that all wheat plants have grown as in the untreated, uninfected control; 0% means that no wheat plant has grown.

Ctenocephalides felis = Ctenocephalides felis oral test; format: in vivo; details: 48 h, 100 ppm in citrated cattle blood, unfed adult cat fleas, after 2 days, read-out: efficacy (kill in %)
Description: Ctenocephalides felis—Oral Test [table] To produce a suitable active compound preparation, 10 mg of active compound are mixed with 0.5 ml of dimethyl sulfoxide. Dilution with citrated cattle blood gives the desired concentration. About 20 unfed adult cat fleas (Ctenocephalides felis) are placed into a chamber which is closed at the top and bottom with gauze. A metal cylinder whose bottom end is closed with parafilm is placed onto the chamber. The cylinder contains the blood/active compound formulation, which can be imbibed by the fleas through the parafilm membrane. After 2 days, the kill in % is determined. 100% means that all of the fleas have been killed; 0% means that none of the fleas have been killed.

[3] = log P by HPLC on reversed-phase column (C18), EEC Directive 79/831 Annex V.A8; format: physicochemical
Description: The log P values were determined according to EEC Directive 79/831 Annex V.A8 by HPLC (high-performance liquid chromatography) on a reversed-phase column (C18) using the following methods: ^[a] […] Calibration was carried out using a homologous series of straight-chain alkan-2-ones (having 3 to 16 carbon atoms) with known log P values. The values between successive alkanones are determined by linear regression.

[4] = LC-UV in the acidic range, formic acid in water / acetonitrile, read-out: log P[acidic]
[5] = LC-UV in the neutral range, ammonium carbonate in water / acetonitrile, read-out: log P[neutral]

SMILES	pest or weed control at 4 ppm (Myzus persicae [1]) [%]	pest or weed control at 100 g/ha (Myzus persicae [2]) [%]	efficacy (Phaedon cochleariae) [%]	pest or weed control at 100 g/ha (Spodoptera frugiperda) [%]	pest or weed control at 160 µg/disc, 160 µg/well (Diabrotica balteata) [%]	pest or weed control at 100 ppm (Ctenocephalides felis) [%]	chromatographic logP [3, 4]	chromatographic logP [3, 5]
CCS(=O)(=O)c1c(-c2nc3cc(C(F)(F)F)cnc3n2C)nc(C2CC(c3cccnc3)=NO2)n1C (centres unmarked) [Example I-4]	100	100						
CCS(=O)(=O)c1c(-c2nc3cc(C(F)(F)F)cnc3n2C)nc(-c2ccnn2C2CC2)n1C [Example I-7]	100	90	100					
CCS(=O)(=O)c1c(-c2nc3cc(C(F)(F)C(F)(F)F)cnc3n2C)nc(-n2ccc(C3CC3)n2)n1C [Example I-21]	100	90		100	100			
CCS(=O)(=O)c1c(-c2nc3cc(C(F)(F)F)cnc3n2C)nc(-c2ccc(-c3ccccc3)s2)n1C [Example I-11]	100	90		100		90		
CCS(=O)(=O)c1c(-c2nc3cc(C(F)(F)F)cnc3n2C)nc(-c2ccc(-c3cccs3)s2)n1C [Example I-13]	100	90			80			
CCS(=O)(=O)c1c(-c2nc3cc(C(F)(F)C(F)(F)F)cnc3n2C)nc(-c2cnn(-c3ccc(F)cc3)c2)n1C [Example I-17]	100			100	100			
CCS(=O)(=O)c1c(-c2nc3cc(C(F)(F)C(F)(F)F)cnc3n2C)nc(-c2cccc(N3CCOCC3)n2)n1C [Example I-23]	100			100	100			
CCS(=O)(=O)c1c(-c2nc3cc(C(F)(F)F)cnc3n2C)nc(-c2ccc(C3CC3)s2)n1C [Example I-8]	100	100		100		80		
CCS(=O)(=O)c1c(-c2nc3cc(C(F)(F)F)cnc3n2C)nc(C2CC(c3ccc(Cl)cc3)=NO2)n1C (centres unmarked) [Example I-2]	100			100				
CCS(=O)(=O)c1c(-c2nc3cc(C(F)(F)C(F)(F)F)cnc3n2C)nc(-c2cnn(-c3ccccc3C#N)c2)n1C [Example I-18]	100	70		100	80			
CCS(=O)(=O)c1c(-c2nc3cc(C(F)(F)F)cnc3n2C)nc(-n2ccc(C3CC3)n2)n1C [Example I-9, 2-[2-(3-Cyclopropyl-1H-pyrazol-1-yl)-5-(ethylsulfonyl)-1-methyl-1H-imidazol-4-yl]-3-methyl-6-(trifluoromethyl)-3H-imidazo[4,5-b]pyridine]	100	100	100	100		90	3.46	3.36
CCS(=O)(=O)c1c(-c2nc3cc(C(F)(F)C(F)(F)F)cnc3n2C)nc(-c2ccc(C3(C#N)CC3)cc2)n1C [Example I-15]	100	90		100	100			
CCS(=O)(=O)c1c(-c2nc3cc(C(F)(F)F)cnc3n2C)nc(-c2ccc(C3CC3)nc2)n1C [Example I-14]	100	90	100	100		90		
CCS(=O)(=O)c1c(-c2nc3cc(C(F)(F)F)cnc3n2C)nc(C2CC(C3CC3)=NO2)n1C (centres unmarked) [Example I-1, 2-[2-(3-Cyclopropyl-4,5-dihydro-1,2-oxazol-5-yl)-5-(ethylsulfonyl)-1-methyl-1H-imidazol-4-yl]-3-methyl-6-(trifluoromethyl)-3H-imidazo[4,5-b]pyridine]	100	100				100	2.73	2.72
CCS(=O)(=O)c1c(-c2nc3cc(C(F)(F)C(F)(F)F)cnc3n2C)nc(-n2cc(C#N)c(-c3ccccc3F)c2)n1C [Example I-25]				100	100			
CCS(=O)(=O)c1c(-c2nc3cc(C(F)(F)F)cnc3n2C)nc(-c2cccc(C3(C#N)CC3)c2)n1C [Example I-12]	100	90		100	100			
CCS(=O)(=O)c1c(-c2nc3cc(C(F)(F)C(F)(F)F)cnc3n2C)nc(-c2cnn(-c3cccc(C#N)c3)c2)n1C [Example I-19]	100			100	100			
CCS(=O)(=O)c1c(-c2nc3cc(C(F)(F)C(F)(F)F)cnc3n2C)nc(-c2cnn(-c3cncc(F)c3)c2)n1C [Example I-20]	100	100		100	100			
CCS(=O)(=O)c1c(-c2nc3cc(C(F)(F)F)cnc3n2C)nc(C2CC(c3ccccn3)=NO2)n1C (centres unmarked) [Example I-3]	100	90		100				
CCS(=O)(=O)c1c(-c2nc3cc(C(F)(F)C(F)(F)F)cnc3n2C)nc(-c2ccc(C3CC3)nc2)n1C [Example I-22]	100	90		100	100			
CCS(=O)(=O)c1c(-c2nc3cc(C(F)(F)C(F)(F)F)cnc3n2C)nc(-n2cc(C#N)c(-c3ccc(F)cc3)c2)n1C [Example I-26]	100			100	100			
CCS(=O)(=O)c1c(-c2nc3cc(C(F)(F)C(F)(F)F)cnc3n2C)nc(-c2cnn(C3CC3)c2)n1C [Example I-16]	100	90		100	100			
CCS(=O)(=O)c1c(-c2nc3cc(C(F)(F)C(F)(F)F)cnc3n2C)nc(-c2cccc(C3(C#N)CC3)c2)n1C [Example I-24]	100			100	100			
